Measurements published in patent US20240092741A1, “COMPOSITION FOR PREVENTION OR TREATMENT OF NEUROFIBROMATOSIS TYPE 2 SYNDROME” (PRG S&TECH INC., priority 2021, published 2024).
Entries after “also recorded” stand apart in the source; their conditions may differ.

Columns and labels:
HEI-193 cells [1] = assay: Western blotting of marker proteins in HEI-193 cells; format: cell-based, human; details: HEI-193 cells
Protocol: (§1) Cells were harvested and lysed using RIPA buffer [50 mM Tris-Cl, pH 7.5, 150 mM NaCl, 1% NP-40, 0.1% SDS, and 10% sodium deoxycholate] to examine cellular signaling. Protein concentrations in samples were measured using Bio-Rad (Hercules, CA, USA) protein assay kits and BSA standards. The samples (20 μg protein per lane) were separated by sodium dodecyl sulfate-polyacrylamide gel electrophoresis (SDS-PAGE), transferred to Immobilon-P^SQ transfer membranes (Millipore Corp., MA, USA), which were then cultured with 3% skim milk-containing TBS-T buffer (Tris-HCl-based buffer containing 20 mM Tris pH 7.6, 150 mM NaCl, and 0.05% Tween 20) for 1 hour at room temperature and then reacted with primary antibody in TBS-T overnight at 4° C. The membranes were then washed and reacted with secondary horseradish peroxidase (HRP)-conjugated antibodies [goat anti-mouse, goat anti-rabbit, and mouse anti-goat antibodies (Pierce, Thermo Fisher Scientific, Inc., Rockford, IL, USA)] in TBS-T at room temperature for 2 hours. The blots were detected using an HRP-conjugated secondary antibody using ECL kit (Intron, Seoul, Korea).

[2] = tested on: NF2-transfected HEI-193 cells; assay: MTT and immunoblotting in NF2-transfected HEI-193 cells; format: cell-based, human; details: NF2-transfected HEI-193 cells (FIGS. 8B, 8C)
Protocol: In other words, cells were seeded at a density of 2×10^5 cells/well in 12-well plates and cultured overnight before transfection. The vector (1.5 μg) was mixed with 1.5 μl of Jetpei reagent dissolved in 150 mM NaCl solution. The mixture was reacted at room temperature for 15 minutes, and then added to the cells. After 3 hours, the serum-free medium 15 was replaced with medium supplemented with 10% FBS. Cells were harvested and lysed using RIPA buffer [50 mM Tris-Cl, pH 7.5, 150 mM NaCl, 1% NP-40, 0.1% SDS, and 10% sodium deoxycholate] to examine cellular signaling. Protein concentrations in samples were measured using Bio-Rad (Hercules, CA, USA) protein assay kits and BSA standards. […] The blots were detected using an HRP-conjugated secondary antibody using ECL kit (Intron, Seoul, Korea). […] Plates were then cultured at 37° C. for 4 hours, the MTT solution was removed, the precipitated substances were dissolved using a solution (DMSO:ethanol=1:1), and an amount of formazan dye produced was quantified by measuring the absorbance at 560 nm using an ELISA microplate reader (Thermo Fisher Scientific, MA, USA).

SOX2 = SOX2 localization by IF and cell fractionation in HEI-193 cells; format: cell-based, human; details: 2 μM, 24 h, IF and cell fractionation (FIGS. 15C, 15D)
Protocol: Cells were seeded on cover glass, washed with PBS, fixed with 4% paraformaldehyde (PFA) for 30 minutes at room temperature, and then permeabilized with 0.2% Triton X-100 at room temperature for 5 minutes. After treatment with blocking buffer [3% goat serum diluted in PBS] for 1 hour, cells were reacted with the specified antibody in the blocking buffer overnight at 4° C. Finally, the cells were reacted with secondary antibodies conjugated with FITC or rhodamine at 4° C. for 7 hours. The nuclei were stained with DAPI at room temperature for 10 minutes. After the cells were washed 3 times with PBS, the cover glass was mounted with a mounting solution (H-5501, Vector Laboratories, Cambridgeshire, UK) and immunofluorescence signals were detected using a fluorescence microscopy (Zeiss, Jena, Germany).

[3] = target: T1, interaction between TβR1 and RKIP (Homo sapiens, UniProt P30086+P36897); assay: GST-pull down assay of TβR1-RKIP interaction; format: binding
T1 construct: host or cells: HEK293 (TβR1 lysate)
T1 sequence (P30086 whole entry): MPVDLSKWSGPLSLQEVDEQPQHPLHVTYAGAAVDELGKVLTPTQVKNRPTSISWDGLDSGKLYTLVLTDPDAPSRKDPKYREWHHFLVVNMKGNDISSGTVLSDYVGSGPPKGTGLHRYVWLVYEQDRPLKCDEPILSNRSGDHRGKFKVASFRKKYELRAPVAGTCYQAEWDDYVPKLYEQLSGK
T1 sequence (P36897 34-503): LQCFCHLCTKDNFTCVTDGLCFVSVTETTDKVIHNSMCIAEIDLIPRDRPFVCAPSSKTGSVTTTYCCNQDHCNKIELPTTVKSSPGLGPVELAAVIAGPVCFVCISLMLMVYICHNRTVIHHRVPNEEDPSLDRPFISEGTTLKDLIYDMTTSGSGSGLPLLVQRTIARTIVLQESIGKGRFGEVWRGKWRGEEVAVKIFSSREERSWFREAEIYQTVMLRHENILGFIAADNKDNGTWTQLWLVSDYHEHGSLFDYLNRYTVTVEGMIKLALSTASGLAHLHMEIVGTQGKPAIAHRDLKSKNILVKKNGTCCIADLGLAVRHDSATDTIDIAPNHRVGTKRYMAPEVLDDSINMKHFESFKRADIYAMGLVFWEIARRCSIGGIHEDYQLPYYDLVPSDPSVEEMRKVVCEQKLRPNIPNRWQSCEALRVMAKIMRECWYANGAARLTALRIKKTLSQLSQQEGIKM
Protocol: For protein-protein interaction analysis, glutathione S-transferase (GST)-pull down assay was performed. For GST-pull down, agarose-bead-conjugated GST-RKIP recombinant protein was reacted with FLAG-tagged TβR1-transfected HEK 293 cell lysates in PBS buffer at 4° C. for 1 hour. Immunoprecipitation (IP) assay was performed by reacting with FLAG-tagged TβR1- or HA-tagged RKIP-transfected HEI-193 cell lysates in PBS buffer. Whole lysates were reacted with appropriate primary antibodies at 4° C. for 2 hours and with agarose-bead-conjugated protein A/G (Invitrogen, Carlsbad, CA, USA) for 2 hours. After centrifugation, the precipitates were washed twice with RIPA buffer and subjected to SDS-PAGE and western blotting analysis.

TGF-β signaling = assay: Smad2/3 phosphorylation after TGF-β1 in HEI-193 cells; format: cell-based, human; details: 10 μM, TGF-β1 1 ng/ml (FIGS. 16A, 16B)
Protocol: as §1

HEI-193 cells [4] = assay: MTT cell viability assay in HEI-193 cells; format: cell-based, human; details: indicated concentrations, 7 days (FIG. 5A)
Protocol: To measure cell viability, MTT (3-(4,5-dimethylthiazol-2-yl)-2,5-diphenyltetrazolium bromide) assay was used. In other words, the cells were seeded in 96-well plates and treated with the indicated chemicals for a predetermined time. After removing the medium, 200 μl of MTT solution (0.5 mg/ml) dissolved in PBS was added to each well. Plates were then cultured at 37° C. for 4 hours, the MTT solution was removed, the precipitated substances were dissolved using a solution (DMSO:ethanol=1:1), and an amount of formazan dye produced was quantified by measuring the absorbance at 560 nm using an ELISA microplate reader (Thermo Fisher Scientific, MA, USA).

RKIP = RKIP expression by Western blotting in HEI-193 cells; format: cell-based, human; details: compounds 10 μM, 24 h (FIG. 1A) or 72 h (FIG. 2), Western blot
Protocol: as §1
Because RKIP degradation in NF2 cells is clearly known (Mol Cancer Ther 17, 2271-2284, 2018), after first treating 260 novel synthetic compounds, RKIP expression was measured in HEI-193, a human NF2 cell line.

## CCN(CC)CCOc1ccc(-c2nnn(Cc3ccc(OC)cc3)c2N)cc1 [PRG-N-01, 4-(4-(2-(diethylamino)ethoxy)phenyl)-1-(4-methoxybenzyl)-1H-1,2,3-triazol-5-amino]
HEI-193 cells [1]; 4 days, Western blot (FIG. 14A)
  expression of other stem cell factors (c-Myc, Nanog, Oct4): not altered
HEI-193 cells [1]; Western blot (FIG. 12E)
  expression of SOX2 (stem cell marker) at the protein level: reduced
[2]
  chemical effect (antiproliferating effect, RKIP induction, p-Erk suppression): no chemical effect
SOX2
  localization of nuclear SOX2: moved to the cytosol
[3]; GST pull-down, low concentrations (FIG. 6B)
  interaction between TβR1 and RKIP at low concentrations: showed an inhibitory effect even at low concentrations
[3]; GST-RKIP beads with TβR1-transfected HEK293 lysates, 5 and 10 μM, 2 h (FIG. 5B)
  interaction between TβR1 and RKIP: inhibited the interaction between TβR1 and RKIP in a dose-dependent manner
TGF-β signaling
  duration of Smad 2/3 phosphorylation (canonical TGF-β signaling): prolonged
HEI-193 cells [4]
  antiproliferative effect in NF2 cells (MTT): obvious antiproliferative effect
RKIP
  RKIP expression: induced RKIP expression; also recorded: increased RKIP expression
